The target of one data set is Cytochrome P450 3A4 (Homo sapiens, UniProt P08684). Briefly: Inhibition of human CYP3A4 at 100 uM. The format is ADME.
A further data set has as its target Interstitial collagenase (Homo sapiens, UniProt P03956). Briefly: Inhibition of human MMP1 at 100 uM.
Data set [1] is described as follows: Cytotoxicity against mouse 3T3 cells assessed as growth inhibition at 256 ug/ml relative to control. The format is cell-based. As to conditions: NIH3T3 cells, read-out: Activity; call rule not given here.
The subject of data set [2] is Escherichia coli. Nature of the data set: Inhibition of TEM/CTX-M/SHV/Cephalosporinase in Escherichia coli CH1 assessed as cefepime antibacterial activity at 4 ug/ml after 16 to 20 hrs by CLSI-based microbroth dilution method (Rvb > […] ug/ml). For orientation: Broth dilution looks for growth in wells or tubes with falling amounts of substance.
The target of data set [3] is Beta-lactamase VIM-2 (Pseudomonas aeruginosa) (UniProt Q9K2N0). Briefly: Inhibition of VIM-2 in Pseudomonas aeruginosa assessed as meropenem antibacterial activity at 4 ug/ml after 16 to 20 hrs by CLSI-based microbroth dilution method (Rvb >= […] ug/ml).
The target in a further data set is Cytochrome P450 2C9 (Homo sapiens, UniProt P11712). Briefly: Inhibition of human CYP2C9 at 100 uM. The format is ADME.
Cytochrome P450 2C9, sequence (P11712 whole entry): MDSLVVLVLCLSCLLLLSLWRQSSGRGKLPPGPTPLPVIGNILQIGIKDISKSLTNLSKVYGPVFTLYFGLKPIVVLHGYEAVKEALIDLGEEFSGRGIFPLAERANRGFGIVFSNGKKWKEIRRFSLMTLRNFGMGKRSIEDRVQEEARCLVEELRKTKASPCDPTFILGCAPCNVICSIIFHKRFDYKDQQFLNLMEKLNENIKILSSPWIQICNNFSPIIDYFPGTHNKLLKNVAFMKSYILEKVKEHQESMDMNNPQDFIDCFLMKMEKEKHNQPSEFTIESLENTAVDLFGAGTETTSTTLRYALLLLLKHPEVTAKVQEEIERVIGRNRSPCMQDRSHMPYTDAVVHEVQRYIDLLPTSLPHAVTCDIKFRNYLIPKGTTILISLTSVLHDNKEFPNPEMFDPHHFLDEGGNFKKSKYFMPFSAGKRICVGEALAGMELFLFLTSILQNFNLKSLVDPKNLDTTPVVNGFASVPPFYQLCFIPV
The test system of data set [4] is Escherichia coli. Nature of the data set: Effect on growth of wild type Escherichia coli ATCC 25922 after 16 to 20 hrs by CLSI-based microbroth dilution method. The conditions noted are these: in vitro. The format is organism-based.
For a further data set, the target named is Cathepsin G (Homo sapiens, UniProt P08311). Briefly: Inhibition of human cathepsin G at 100 uM.
Cathepsin G, sequence (P08311 whole entry): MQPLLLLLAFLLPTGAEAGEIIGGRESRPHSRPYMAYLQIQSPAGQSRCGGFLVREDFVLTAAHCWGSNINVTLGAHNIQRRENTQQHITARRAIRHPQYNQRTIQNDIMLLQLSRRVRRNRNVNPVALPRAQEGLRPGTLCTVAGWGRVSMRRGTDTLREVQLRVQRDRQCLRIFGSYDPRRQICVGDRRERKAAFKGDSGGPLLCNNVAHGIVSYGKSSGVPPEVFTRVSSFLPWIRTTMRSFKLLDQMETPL
In data set [5] the test system is Klebsiella pneumoniae. Briefly: Inhibition of TEM/CTX-M/SHV in Klebsiella pneumoniae 9032 assessed as cefepime antibacterial activity at 4 ug/ml after 16 to 20 hrs by CLSI-based microbroth dilution method (reference value: […] ug/ml).
In data set [6] the test system is Klebsiella pneumoniae. Nature of the data set: Inhibition of KPC/Cephalosporinase in Klebsiella pneumoniae 664-1 assessed as cefepime antibacterial activity at 4 ug/ml after 16 to 20 hrs by CLSI-based microbroth dilution method (Rvb > […] ug/ml).
The subject of a further data set is Klebsiella aerogenes. Briefly: Effect on growth of Enterobacter aerogenes 188548 expressing AmpC after 16 to 20 hrs by CLSI-based microbroth dilution method. The format is organism-based. As to conditions: in vivo.
Data set [7] relates to Pseudomonas aeruginosa. Nature of the data set: Effect on growth of Pseudomonas aeruginosa Ps296 AmpC/VIM-2/TEM-1 after 16 to 20 hrs by CLSI-based microbroth dilution method. The format is organism-based. The conditions noted are these: in vivo.
A further data set deals with Cytochrome P450 2C19 (Homo sapiens, UniProt P33261). Briefly: Inhibition of human CYP2C19 at 100 uM. The format is ADME.
Cytochrome P450 2C19, sequence (P33261 whole entry): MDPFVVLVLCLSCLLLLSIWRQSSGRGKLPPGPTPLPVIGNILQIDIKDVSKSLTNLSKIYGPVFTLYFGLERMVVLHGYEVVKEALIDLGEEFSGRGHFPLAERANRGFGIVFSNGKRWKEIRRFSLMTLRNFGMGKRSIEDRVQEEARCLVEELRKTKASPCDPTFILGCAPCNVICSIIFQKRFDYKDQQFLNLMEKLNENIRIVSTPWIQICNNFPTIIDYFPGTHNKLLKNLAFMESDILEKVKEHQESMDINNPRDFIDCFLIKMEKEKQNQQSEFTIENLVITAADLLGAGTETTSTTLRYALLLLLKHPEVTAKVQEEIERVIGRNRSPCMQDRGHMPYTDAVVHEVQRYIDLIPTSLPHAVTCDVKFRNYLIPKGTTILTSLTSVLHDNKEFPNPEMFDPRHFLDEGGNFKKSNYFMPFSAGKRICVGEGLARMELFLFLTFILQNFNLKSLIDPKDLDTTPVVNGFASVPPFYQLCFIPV
In data set [8] the test system is Pseudomonas aeruginosa. Briefly: Effect on growth of wild type Pseudomonas aeruginosa 27853 after 16 to 20 hrs by CLSI-based microbroth dilution method. The format is organism-based.
The target in data set [9] is Matrix metalloproteinase-9 (Homo sapiens, UniProt P14780). Briefly: Inhibition of human MMP9 at 100 uM.
Matrix metalloproteinase-9, sequence (P14780 whole entry): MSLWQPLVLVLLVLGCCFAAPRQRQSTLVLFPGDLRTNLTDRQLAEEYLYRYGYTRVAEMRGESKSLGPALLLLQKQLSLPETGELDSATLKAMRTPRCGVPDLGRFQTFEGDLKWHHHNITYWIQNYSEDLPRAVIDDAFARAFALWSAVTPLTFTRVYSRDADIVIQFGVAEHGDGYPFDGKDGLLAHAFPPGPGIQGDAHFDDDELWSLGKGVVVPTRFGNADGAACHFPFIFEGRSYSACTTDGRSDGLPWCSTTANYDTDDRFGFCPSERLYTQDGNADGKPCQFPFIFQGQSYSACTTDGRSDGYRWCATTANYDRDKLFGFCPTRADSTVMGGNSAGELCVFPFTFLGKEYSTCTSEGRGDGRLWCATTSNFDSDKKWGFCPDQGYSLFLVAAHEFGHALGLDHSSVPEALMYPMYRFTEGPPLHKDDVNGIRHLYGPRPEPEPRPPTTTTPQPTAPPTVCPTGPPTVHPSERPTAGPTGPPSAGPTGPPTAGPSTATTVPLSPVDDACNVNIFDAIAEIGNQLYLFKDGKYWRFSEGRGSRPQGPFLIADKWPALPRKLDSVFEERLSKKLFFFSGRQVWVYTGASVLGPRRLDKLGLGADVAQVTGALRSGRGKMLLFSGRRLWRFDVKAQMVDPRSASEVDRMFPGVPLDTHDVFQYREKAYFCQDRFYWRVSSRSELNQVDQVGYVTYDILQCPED
The target in data set [10] is Voltage-gated inwardly rectifying potassium channel KCNH2 (Homo sapiens, UniProt Q12809). Briefly: Inhibition of human ERG at 100 uM.
Voltage-gated inwardly rectifying potassium channel KCNH2, sequence (Q12809 whole entry): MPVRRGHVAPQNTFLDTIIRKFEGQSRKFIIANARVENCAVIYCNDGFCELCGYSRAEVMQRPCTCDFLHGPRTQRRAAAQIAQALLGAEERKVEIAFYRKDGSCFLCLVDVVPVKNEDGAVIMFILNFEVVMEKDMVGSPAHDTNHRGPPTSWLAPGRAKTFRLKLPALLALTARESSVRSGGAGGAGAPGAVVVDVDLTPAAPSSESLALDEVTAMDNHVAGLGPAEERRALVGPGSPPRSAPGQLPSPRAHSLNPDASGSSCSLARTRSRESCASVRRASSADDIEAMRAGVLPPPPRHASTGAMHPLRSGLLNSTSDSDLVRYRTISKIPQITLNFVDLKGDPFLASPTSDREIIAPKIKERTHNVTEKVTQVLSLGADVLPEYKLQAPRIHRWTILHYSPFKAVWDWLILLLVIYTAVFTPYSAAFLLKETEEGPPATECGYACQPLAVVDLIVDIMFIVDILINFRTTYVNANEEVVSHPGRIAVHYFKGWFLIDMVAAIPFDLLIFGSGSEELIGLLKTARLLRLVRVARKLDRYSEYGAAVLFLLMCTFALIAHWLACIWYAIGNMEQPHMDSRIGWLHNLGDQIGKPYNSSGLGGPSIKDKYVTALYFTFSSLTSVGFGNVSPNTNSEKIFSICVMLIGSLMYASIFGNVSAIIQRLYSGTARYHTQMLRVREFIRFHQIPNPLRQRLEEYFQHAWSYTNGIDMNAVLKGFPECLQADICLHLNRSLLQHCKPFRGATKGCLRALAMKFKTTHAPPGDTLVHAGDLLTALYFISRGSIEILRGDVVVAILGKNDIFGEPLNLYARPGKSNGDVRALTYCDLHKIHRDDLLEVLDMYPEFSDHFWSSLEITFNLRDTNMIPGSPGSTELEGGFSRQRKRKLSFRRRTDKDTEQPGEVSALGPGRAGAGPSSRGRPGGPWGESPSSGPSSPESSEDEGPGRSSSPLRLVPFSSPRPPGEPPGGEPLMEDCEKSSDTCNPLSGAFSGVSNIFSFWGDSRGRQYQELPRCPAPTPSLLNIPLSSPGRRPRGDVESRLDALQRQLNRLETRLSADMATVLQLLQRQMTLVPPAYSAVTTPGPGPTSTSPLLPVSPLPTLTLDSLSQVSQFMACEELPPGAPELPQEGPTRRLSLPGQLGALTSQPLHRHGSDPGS
For data set [11], the target named is 72 kDa type IV collagenase (Homo sapiens, UniProt P08253). Briefly: Inhibition of human MMP2 at 100 uM.
Data set [12] can be described thus: Cytotoxicity against human HeLa cells assessed as growth inhibition at 256 ug/ml relative to control. The format is cell-based. The conditions noted are these: read-out: Activity.
The target of the next data set is Cytochrome P450 1A2 (Homo sapiens, UniProt P05177). Nature of the data set: Inhibition of human CYP1A2 at 100 uM. The format is ADME.
Cytochrome P450 1A2, sequence (P05177 whole entry): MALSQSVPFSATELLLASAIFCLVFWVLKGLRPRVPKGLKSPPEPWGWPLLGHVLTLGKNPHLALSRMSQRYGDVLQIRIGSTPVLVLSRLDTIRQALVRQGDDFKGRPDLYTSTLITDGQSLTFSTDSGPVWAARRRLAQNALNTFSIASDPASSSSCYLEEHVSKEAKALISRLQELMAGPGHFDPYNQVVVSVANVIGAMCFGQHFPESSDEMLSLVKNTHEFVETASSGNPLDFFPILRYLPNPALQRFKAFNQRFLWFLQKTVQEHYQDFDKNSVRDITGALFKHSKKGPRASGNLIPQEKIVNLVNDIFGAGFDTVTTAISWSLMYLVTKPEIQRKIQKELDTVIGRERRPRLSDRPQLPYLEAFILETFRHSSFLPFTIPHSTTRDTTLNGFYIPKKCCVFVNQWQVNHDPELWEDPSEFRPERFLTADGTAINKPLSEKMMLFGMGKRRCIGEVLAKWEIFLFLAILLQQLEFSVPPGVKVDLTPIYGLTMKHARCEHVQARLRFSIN
The test system of data set [13] is Klebsiella pneumoniae. Nature of the data set: Effect on growth of Klebsiella pneumoniae A-1797 expressing KPC-2/VIM-4/CMY-4 after 16 to 20 hrs by CLSI-based microbroth dilution method. The format is organism-based. The conditions noted are these: in vivo.
Data set [14] has as its system Escherichia coli. Nature of the data set: Effect on growth of Escherichia coli J53 expressing SHV5/ AmpC/TEM-1 after 16 to 20 hrs by CLSI-based microbroth dilution method. The format is organism-based. The conditions noted are these: in vivo.

In brackets after ≈: the same amount, converted by molar mass.

1 compound from ChEMBL document CHEMBL4354828, “Discovery of Taniborbactam (VNRX-5133): A Broad-Spectrum Serine- and Metallo-β-lactamase Inhibitor for Carbapenem-Resistant Bacterial Infections” (J Med Chem, 2020) can be followed below.

Cytochrome P450 3A4, sequence (P08684 whole entry): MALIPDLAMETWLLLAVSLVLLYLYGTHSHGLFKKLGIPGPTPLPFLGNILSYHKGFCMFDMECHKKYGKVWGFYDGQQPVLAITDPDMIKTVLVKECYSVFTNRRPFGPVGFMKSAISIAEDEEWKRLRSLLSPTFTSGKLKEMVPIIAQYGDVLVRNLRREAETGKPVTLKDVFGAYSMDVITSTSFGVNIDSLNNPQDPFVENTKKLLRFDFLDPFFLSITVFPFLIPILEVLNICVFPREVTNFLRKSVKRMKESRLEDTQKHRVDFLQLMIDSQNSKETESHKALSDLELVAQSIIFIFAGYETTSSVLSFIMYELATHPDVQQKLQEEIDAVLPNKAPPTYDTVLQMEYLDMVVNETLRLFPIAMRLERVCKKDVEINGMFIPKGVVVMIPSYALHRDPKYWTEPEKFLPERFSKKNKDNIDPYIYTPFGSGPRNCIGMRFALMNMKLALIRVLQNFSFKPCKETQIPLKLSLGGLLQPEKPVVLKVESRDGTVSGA
Interstitial collagenase, sequence (P03956 whole entry): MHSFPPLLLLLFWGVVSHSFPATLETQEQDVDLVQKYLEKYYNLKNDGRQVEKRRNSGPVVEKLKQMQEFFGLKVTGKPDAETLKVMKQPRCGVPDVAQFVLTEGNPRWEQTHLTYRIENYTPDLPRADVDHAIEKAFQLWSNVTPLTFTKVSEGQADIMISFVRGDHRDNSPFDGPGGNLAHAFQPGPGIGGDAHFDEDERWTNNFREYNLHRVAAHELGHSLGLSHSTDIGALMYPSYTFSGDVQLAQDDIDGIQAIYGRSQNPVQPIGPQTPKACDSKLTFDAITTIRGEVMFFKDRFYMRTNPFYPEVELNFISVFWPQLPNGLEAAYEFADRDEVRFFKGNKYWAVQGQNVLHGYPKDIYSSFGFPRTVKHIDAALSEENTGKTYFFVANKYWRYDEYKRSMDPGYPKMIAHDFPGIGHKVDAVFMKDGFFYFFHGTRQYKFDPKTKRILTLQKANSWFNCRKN

As to `NCCN[C@H]1CC[C@H](CC(=O)N[C@H]2Cc3cccc(C(=O)O)c3OB2O)CC1`, the “inhibition (INH)” value (against Cytochrome P450 3A4; against Interstitial collagenase; at Cytochrome P450 2C9; against Cathepsin G; against Cytochrome P450 2C19; in data set [9]) was “Not Active” in each case. The “inhibition (INH)” value (in data set [10]; in data set [11]; on Cytochrome P450 1A2) was “Not Active” each time. For the same compound, the inhibition at 256 ug/ml in data set [1] and in [12] was < 20% in each case. Further, the MIC was < 0.125 µg/mL with Escherichia coli [2]; 0.06 µg/mL (≈ 0.154 µM) in [3]; > 128 µg/mL in the data set on Escherichia coli [4]; < 0.125 µg/mL in the data set on Klebsiella pneumoniae [5]; 0.25 µg/mL (≈ 0.642 µM) in the data set with Klebsiella pneumoniae [6]; > 128 µg/mL against Klebsiella aerogenes. Moreover, the MIC with Pseudomonas aeruginosa [7], in the data set on Pseudomonas aeruginosa [8], against Klebsiella pneumoniae [13] and against Escherichia coli [14] was > 128 µg/mL each time.
